The source of these data is patent publication US8613909B2, “Cinnamic acid-based oligomers and uses thereof” (Virginia Commonwealth University, priority 2008, dated 2013).

The test system of experiment [1] is NFκB in Calu-3 human bronchial epithelial cells. Put plainly: TNFα-dependent NFκB-Luc reporter repression in Calu-3 cells. The class given is cell-based. The method, then:
Anti-inflammatory activity of each of the oligomers was determined using Calu-3 human bronchial epithelial cells (American Type Culture Collection; ATCC), from repression of the inflammatory transcription factor NFκB. The Calu-3 cells of 0.5×10^6 cells/cm^2 in 12-well plates were cultured for 24 h and then, transfected with 0.6 μg luciferase (Luc)-tagged reporter plasmid construct of NFκB (pNFκB-Luc) for another 24 h using the Effectene reagents (Qiagen) under the protocol optimized in-house. On day 3, the transfected Calu-3 cells were stimulated for 6 h with 30 ng/ml human tumor necrosis factor α (TNF α; BD Biosciences) in the presence of each oligomer at 0-100 μM in culture. Then, the Calu-3 cells were lysed, after which the Luc activities were measured using 20/20n luminometer (Turner BioSystems). The cellular NFκB-Luc activity was expressed in relative light unit/mg protein, normalized by the total protein measured by the BCA assay (Pierce Biotechnology). A fold-induction of such a normalized NFκB-Luc activity relative to the transfection control was derived for treatment group comparison; this accommodated inter-transfection efficiency differences.

A short description of experiment [2]: Chemical antioxidant assay (ABTS oxidation by metmyoglobin/hydrogen peroxide). The note with it: room temperature, absorbance at 750 nm in first 5 min; read-out: AOC50 (half maximal anti-oxidative concentration). The method, then: Anti-oxidative activity of the oligomers was determined at room temperature using the chemical antioxidant assay kit (Cayman Chemical Co.) in a 96-well plate format, in accord with the manufacturer's protocol. The kit has been validated in-house with respect to assay precision and accuracy. Oxidative reaction of ABTS (2,2′-azino-di-[3-ethylbenzthiazoline sulphonate]) to its oxidative product, ABTS•+, by metmyoglobin and 84 μM hydrogen peroxide were monitored for 20 min in the presence of each oligomer at 0-100 μM. The absorbance at 750 nm due to ABTS•+ generation was measured using the microplate reader. Initial linear rate of oxidation was assessed with the absorbance produced for the first 5 min. The half maximal anti-oxidative concentration (AOC50) values were derived, assuming the sigmoidal concentration-dependence of the initial oxidation rate in the logistic function equation.

With `O=C(O)/C=C/c1ccc(O)c(O)c1` [CA, caffeic acid], in experiment [1] (by 100 μM), the “repression of NFκB-Luc activity” value was “no appreciable repression”. Besides, in experiment [2], the EC50 worked out at 16.8 ± 1.6 µM.

Take `CCC(=O)O[C@]1(C(=O)SCF)[C@H](C)C[C@H]2[C@@H]3C[C@H](F)C4=CC(=O)C=C[C@]4(C)[C@@]3(F)[C@@H](O)C[C@@]21C` [FP, fluticasone propionate]: in experiment [1] (5 μM), the “repression of TNFα-induced NFκB-Luc activity” value worked out at 100%.
